Values of other authors, collected in patent US11951100B2, “Formulations of RBP4 inhibitors and methods of use” (Belite Bio, LLC, priority 2019, dated 2024).

Conditions: sub-population with significant RBP4 lowering; cited from earlier work

Structure (SMILES): CC1=C(/C=C/C(C)=C/C=C/C(C)=C/C(=O)Nc2ccc(O)cc2)C(C)(C)CCC1 [fenretinide]
- lesion growth: slower lesion growth
